The subject of test [1] is H3K27me3 mark in Hela cells expressing wild type EZH2. Kind of test: H3K27me3 MSD Hela Assay. The format is cell-based. As to conditions: Homo sapiens, HeLa, 96 h, read-out: H3K27me3_MSD_HeLa (EC50). How it is done: H3K27me3 MSD Hela Assay. Trypsinized HeLa cells were counted and diluted in 10% DMEM (Life Technologies, Cat. #10569) to 5000 cells/75 μL. Seventy-five μL of cells were place in each well of a 96-well flat-bottomed plate and incubated at 37° C. for 4 hours. Twenty-five μL of test compound (at various concentrations) was added to the cells and incubation continued at 37° C. for 96 hours. Media was then removed and the cells rinsed once with ice cold PBS. Forty μL of ice-cold MSD Buffer AT (10 mM HEPES, pH 7.9, 5 mM MgCl2, 0.25M sucrose, Benzonase (1:10000), 1% Triton X-100 supplemented with fresh 1× Protease Inhibitor cocktail and 1 mM 4-(2-Aminoethyl)benzenesulfonyl fluoride hydrochloride (AEBSF)) was added to each well and the plates placed on ice for 30 minutes. Ten μL of 5M NaCl was then added to each well and incubation on ice continued for another 15 minutes. The material in each well was suspended pipetting up and down and then transferred to a new 96 well plate. The emptied wells were rinsed with 150 uL ice-cold 20 mM Tris pH 7.5, 1 mM EDTA, 1 mM EGTA, supplemented with fresh 1× Protease Inhibitor cocktail and 1 mM AEBSF (“NO salt NO detergent buffer) and transferred to the respective wells in the new plate. Three hundred μL of NO Salt NO detergent buffer was then added to each well of lysates and the plates frozen at −80° C.
On the same day, an appropriate number of MSD standard bind 96-well plates were coated with 30 μL/well of total H3 capture antibody (Millipore, Cat # MAB3422) at 1 μg/mL concentration in PBS. The antibody solution was evenly distributed first by tapping gently on the sides of the plates and then by shaking the plates for a few minutes at 1000 rpm. Antibody coated plates were stored at 4° C. overnight.
The next day the lysates are thawed to RT. The antibody coated MSD plates are washed 3× with TBS-T (Tris-buffered saline (Fisher Scientific, Cat #BP2471-1)+0.2% Tween-20). One-hundred fifty μL of 5% Blocker A in TBS-T is added to each well. The wells are covered and shaken on a shaker at RT for one hour. The Blocker A step is repeated a second time. After removing the blocker, 25 μL of cell lysate is transferred into each antibody coated well. The plates are shaken for 2 hours at RT, the lysate removed and the plates again washed with Blocker A in TBS-T. Twenty-five μL of appropriate freshly prepared antibody mix (including both primary and secondary antibodies) is added to each well and the plates shaken for 1 hour at RT.
Both H3 antibodies were obtained from Cell Signalling (Cat #s 4499 and 9733). The goat anti-rabbit antibody was obtained from Meso-Scale Discovery (Cat #R32AB-1).
The antibody mix was then removed and the wells washed with Blocker A. One hundred-fifty μL of freshly prepared 1×MSD Read Buffer (Meso-Scale Discovery; Cat #R927C-2) was then added to each well and the plates read on a MSD Sector 2400 Plate Reader.
Data was analyzed using Assay Assistant (Constellation Pharmaceuticals In-house product) and Activity Base (IDBS Ltd, Surrey, UK) template. Data files were imported to Assay Assistant and assay conditions were specified. A unique Analysis ID was created and the data files exported to Activity Base. An analysis template was created on Activity Base to measure dose-dependent inhibition of H3K27me3 mark and cell viability respectively. Readout of DMSO wells were used to normalize the data. Resulting curves were fitted using Activity base software Model 205 (IDBS Ltd, Surrey, UK). The data was checked for quality, validated and integrated in excel format using SARview (IDBS Ltd, Surrey, UK).

In the next test the target is Y641N EZH2 (Homo sapiens, UniProt Q15910, Y641N). Put plainly: Assay for Y641N EZH2 (as the EZH2 assay, H3K27Me2 oligonucleosomes as substrate). The format is biochemical. As to conditions: Y641N EZH2 mutant, reconstituted H3K27Me2 oligonucleosomes as substrate. Summed up:
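rPRC2 (2 nM EZH2) with 0.2 μM reconstituted H3K27Me2 biotinylated oligonucleosomes, 3.6 μM H3K27me3 peptide, 0.2 μM ^3H SAM in Tris pH 8.5; compounds (80 to 0.16 μM, 2-fold) pre-incubated 20 min, reaction 60 min, SAH/EDTA quench. Tritiated product captured on streptavidin plates, scintillation counted; IC50 from 4-parameter fit.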

Y641N EZH2, sequence (Q15910 whole entry Y641N): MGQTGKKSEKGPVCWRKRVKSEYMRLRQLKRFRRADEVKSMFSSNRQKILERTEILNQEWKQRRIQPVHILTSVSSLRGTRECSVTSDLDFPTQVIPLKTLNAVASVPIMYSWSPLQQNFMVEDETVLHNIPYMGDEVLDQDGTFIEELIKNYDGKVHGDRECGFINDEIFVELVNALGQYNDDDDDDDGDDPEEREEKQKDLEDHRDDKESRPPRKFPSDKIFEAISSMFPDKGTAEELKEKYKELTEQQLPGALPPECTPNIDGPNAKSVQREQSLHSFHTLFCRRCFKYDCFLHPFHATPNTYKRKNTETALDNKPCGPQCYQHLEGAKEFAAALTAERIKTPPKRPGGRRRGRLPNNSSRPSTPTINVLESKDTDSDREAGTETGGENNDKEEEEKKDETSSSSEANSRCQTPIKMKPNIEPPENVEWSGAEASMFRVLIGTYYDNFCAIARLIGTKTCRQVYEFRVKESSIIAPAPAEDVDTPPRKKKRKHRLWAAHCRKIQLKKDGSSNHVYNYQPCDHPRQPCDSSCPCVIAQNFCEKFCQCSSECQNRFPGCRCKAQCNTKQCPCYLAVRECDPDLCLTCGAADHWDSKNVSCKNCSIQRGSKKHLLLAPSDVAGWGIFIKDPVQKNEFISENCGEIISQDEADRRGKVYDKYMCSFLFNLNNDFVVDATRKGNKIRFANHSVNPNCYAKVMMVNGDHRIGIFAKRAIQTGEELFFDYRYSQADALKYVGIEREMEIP
Y641N EZH2, sequence (O75530 whole entry partner): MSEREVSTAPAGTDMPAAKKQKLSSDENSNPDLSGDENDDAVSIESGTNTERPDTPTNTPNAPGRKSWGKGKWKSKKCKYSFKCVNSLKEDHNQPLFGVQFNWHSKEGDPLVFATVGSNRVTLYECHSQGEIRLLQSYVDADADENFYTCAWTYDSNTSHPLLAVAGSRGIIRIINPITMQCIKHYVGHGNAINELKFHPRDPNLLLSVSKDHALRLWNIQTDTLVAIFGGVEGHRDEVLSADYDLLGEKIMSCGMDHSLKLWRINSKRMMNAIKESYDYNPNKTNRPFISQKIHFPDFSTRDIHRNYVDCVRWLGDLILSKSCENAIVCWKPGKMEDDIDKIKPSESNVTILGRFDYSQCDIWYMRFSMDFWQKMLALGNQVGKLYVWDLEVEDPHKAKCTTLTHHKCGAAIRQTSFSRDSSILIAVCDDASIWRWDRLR
Y641N EZH2, sequence (Q15022 whole entry partner): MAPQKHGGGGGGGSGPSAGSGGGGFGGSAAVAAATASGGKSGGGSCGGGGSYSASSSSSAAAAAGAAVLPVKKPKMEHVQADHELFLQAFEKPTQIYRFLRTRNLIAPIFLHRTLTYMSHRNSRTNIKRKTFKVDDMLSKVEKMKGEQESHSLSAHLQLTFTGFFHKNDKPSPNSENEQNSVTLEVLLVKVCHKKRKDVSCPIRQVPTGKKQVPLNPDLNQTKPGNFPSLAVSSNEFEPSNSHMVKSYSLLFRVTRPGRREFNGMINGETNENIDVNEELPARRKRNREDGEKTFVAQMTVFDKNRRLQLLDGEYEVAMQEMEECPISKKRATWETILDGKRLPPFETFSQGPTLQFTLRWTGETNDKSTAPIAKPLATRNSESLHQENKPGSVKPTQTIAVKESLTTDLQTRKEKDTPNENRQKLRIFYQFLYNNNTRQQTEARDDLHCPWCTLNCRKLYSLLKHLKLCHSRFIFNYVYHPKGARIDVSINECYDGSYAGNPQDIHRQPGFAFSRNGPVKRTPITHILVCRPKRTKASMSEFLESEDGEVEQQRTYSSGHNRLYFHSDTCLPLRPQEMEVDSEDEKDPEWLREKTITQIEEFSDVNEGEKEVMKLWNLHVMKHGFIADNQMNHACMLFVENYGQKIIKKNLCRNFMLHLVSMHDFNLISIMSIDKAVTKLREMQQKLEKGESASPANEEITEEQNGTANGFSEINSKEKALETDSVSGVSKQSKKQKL

For orientation: EC50 means the concentration that produces a half-maximal response. As usually defined, the IC50 is the concentration needed to halve the response being measured. Read a high IC50 as a need for much substance. Consider `COc1cc(C)[nH]c(=O)c1CNC(=O)c1c(C)c(C(C)C2CCOCC2)n2ncccc12` (racemic) [Compound 116, (±)-N-((4-methoxy-6-methyl-2-oxo-1,2-dihydropyridin-3-yl)methyl)-6-methyl-7-(1-(tetrahydro-2H-pyran-4-yl)ethyl)pyrrolo[1,2-b]pyridazine-5-carboxamide], for which the EC50 in test [1] is < 400 nM. Also, the IC50 against Y641N EZH2 was < 100 nM.
Turning to `COc1cc(C)[nH]c(=O)c1CNC(=O)c1c(C)c(C(C)c2ccccc2)n2ncccc12` (racemic) [Compound 101, (±)-N-((4-methoxy-6-methyl-2-oxo-1,2-dihydropyridin-3-yl)methyl)-6-methyl-7-(1-phenylethyl)pyrrolo[1,2-b]pyridazine-5-carboxamide], in test [1], the EC50 was < 400 nM. Also, the IC50 at Y641N EZH2 was < 100 nM.
For the molecule `COc1cc(C)[nH]c(=O)c1CNC(=O)c1c(C)c(C(C)c2ccccc2)n2ncccc12` (single isomer, unassigned) [Compound 105, (R or S)-N-((4-methoxy-6-methyl-2-oxo-1,2-dihydropyridin-3-yl)methyl)-6-methyl-7-(1-phenylethyl)pyrrolo[1,2-b]pyridazine-5-carboxamide], in test [1], the EC50 is < 400 nM. Also, the IC50 against Y641N EZH2 was < 100 nM.
